Measured values as given in patent US20260250325A1, “Antiviral Polypeptide Membrane Fusion Inhibitor, and Preparation Method and Application Thereof” (priority 2025, published 2026).
Where a SMILES comes first, the peptide text is derived from it. [ ]: non-standard residue; d: D form. The star is where a group is joined. ξ: configuration not given here. Succinyl(4-O-cholesteryl) = CC(C)CCC[C@@H](C)[C@H]1CC[C@H]2[C@@H]3CC=C4C[C@@H](OC(=O)CCC(=O)*)CC[C@]4(C)[C@H]3CC[C@]12C; ξD = NC(CC(=O)O)C(=O)O

Tests used:
RSV A2 virus strain [1] = assay: Mouse RSV A2 challenge protection, lung viral titer by plaque method; type: in vivo, BALB/c mice; details: for Mean (PFU/g lung): BALB/c mice, tracheal nebulization 1 mg/kg QD for 5 days, lung collected 2 h after final administration on Day 4; for effect on viral titer in lung tissue (in words): mice, tracheal nebulization once daily for 5 days
Description: Female BALB/c mice were from Shanghai Yishang Biotechnology Co., Ltd. HEp- 2 were from the ATCC, with a catalog number CCL-23. The cells were cultured in a DMEM medium solution in which 10% (v/v) fetal bovine serum and 1% penicillin and streptomycin were added. The RSV A2 virus strain was from the ATCC, with a catalog number VR-1540.
Eight-week-old female BALB/c mice were grouped based on body weight (n=6). All animals were intranasally challenged with RSV on Day 0 at a challenge dosage of 1×10^6 pfu (20 μL) per animal. Administration began 1 h after Day 0 challenge; the polypeptide sample, positive control, and solvent control were administered via tracheal nebulization once daily for 5 consecutive days (see Table 3 below for administration dosage and administration frequency). Lung tissue was collected from all animals 2 h after the final administration on Day 4; left lung tissue was rapidly frozen in a virus protection solution with a 10-fold volume and stored below −70° C.; and a viral titer was detected by using a plaque method.
For analysis, the lung RSV A2 virus was determined by performing a tissue homogenate viral load plaque method. In short, on the day prior to sample detection, the HEp-2 cells were inoculated into a 12-well plate (spreading density being 0.3×10^6 cells/mL, with 1000 μL of cell suspension per well) according to a standard HEp-2 cell culture operation procedure. On the day of incubation, the supernatant was taken from the tissue sample that was homogenized using a tissue homogenizer (maintaining a low-temperature environment), and the supernatant was taken after centrifugation. The tissue homogenate sample was diluted with serum-free DMEM, and inoculated into a 12-well plate at a final volume of 400 μL. After 2 h of incubation, the homogenate supernatant was discarded, and 1.5 mL of a covering layer (cell culture medium containing 1% soft agar) was added to each well and cultured in the incubator for approximately 72 h. The covering layer was discarded, the cells were fixed, blocking was performed by using a blocking solution, dyeing was performed with HRP-RSVG, development and air drying were terminated with pure water. Colored spots on the well plate were counted by using a fluorescent (enzyme-linked) immunoassay spot analyzer, and the viral titer was expressed as a plaque-forming unit per gram of tissue (PFU/g). The viral titer was calculated as an arithmetic mean±standard error of all animals in a group.
(§1) One hour after RSV A2 challenge in mice, compounds 13, 14, 17, 19, 20, 21, 26, 27, 28, and 40 were administered via tracheal nebulization once daily for 5 consecutive days; and 2 h after the final administration, lung tissue was collected from all groups for viral plaque detection, and results were shown in Table 3.

[2] = Cytotoxicity test in HEp-2 cells (CCK8 cell viability); type: cell-based; details: human; HEp-2 cells, CCK8, 1 day; read-out: CC50
Summary of the method: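 Compound dilutions (final DMSO 0.5%) were applied for 1 day to HEp-2 cells plated at 30,000 per well the day before. CCK8 signal gave survival relative to cell and medium controls, and a four-parameter log(inhibitor)-response fit yielded CC50.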

RSV A2 virus strain [3] = assay: Cotton rat RSV A2 challenge protection, lung nucleic acid load by RT-qPCR; type: in vivo; details: cotton rats; for Nucleic acid load RT-qPCR detection results Log10 mean (copy number/gram of lung tissue): tracheal nebulization 1 mg/kg QD for 5 days, lung collected 2 h after final administration on Day 4; for effect on viral titer in lung tissue (in words): tracheal nebulization once daily for 5 days
Text: Female cotton rats were from Shanghai Yishang Biotechnology Co., Ltd. The RSV A2 virus strain was from the ATCC, with a catalog number VR-1540. RT-qPCR primer+probe primer were supplied by Qingke Biotechnology Co., Ltd, with batch number TSP20241227-025-00187. The RT-qPCR standard was provided by Vazyme, with batch number 20241008.
Female cotton rats (6-8 weeks old) were grouped based on body weight (n=5). All animals were intranasally challenged with RSV on Day 0 at a challenge dosage of […] pfu (50 μL) per animal. Administration began 1 h after Day 0 challenge; the polypeptide sample, positive control, and solvent control were administered via tracheal nebulization once daily for 5 consecutive days. Lung tissue was collected from all animals 2 h after the final administration on Day 4. Left lung tissue (including partial trachea) was rapidly frozen in a virus protection solution with a 10-fold volume and stored below −70° C.; and the viral titer was detected with RT-qPCR.
First, sample homogenization and lung tissue RNA extraction were performed, and the supernatant was taken from the tissue sample that was homogenized using a tissue homogenizer (maintaining a low-temperature environment). The approximately 100 μL of the homogenate supernatant was taken, and total tissue RNA was extracted by using a VeZol reagent-chloroform-water phase-magnetic bead method, and dissolved in RNase-free water. The RT-qPCR reaction system was prepared as follows: a one-step RT-qPCR reaction system was prepared by using an RNA template, a probe, a primer pair, an RT-qPCR buffer, and the RNase-free water; each sample was tested in duplicated wells, with each well containing 20 μL of the one-step RT-qPCR reaction system; a quantitative standard curve well (RSV A2 N gene full-length plasmid), a positive quality control well, and a negative quality control well were arranged at the same time. Then, amplification programs were set according to reverse transcription, pre-denaturation, and cyclic amplification, and amplification data was collected by using a real-time fluorescence quantification PCR instrument, and a mean CT value for duplicated wells was calculated. The CT value from the test results for each sample was substituted into a quantitative standard curve to calculate a copy number. A calculation formula for RSV viral load (copy number/gram of lung tissue) was: sample viral load (copy number/gram of lung tissue)=copy number/relative tissue input (g).
as §1, with “cotton rats,” for “mice,”, “titer” for “plaque”, “4.” for “3.”

| SMILES | Mean (PFU/g lung) (RSV A2 virus strain [1]) | effect on viral titer in lung tissue (in words) (RSV A2 virus strain [1]) | CC50 at 1 day [2] | Nucleic acid load RT-qPCR detection results Log10 mean (copy number/gram of lung tissue) (RSV A2 virus strain [3]) | effect on viral titer in lung tissue (in words) (RSV A2 virus strain [3]) |
| --- | --- | --- | --- | --- | --- |
| CC[C@H](C)[C@H](NC(=O)[C@H](CCCCN)NC(=O)[C@H](CCCCN)NC(=O)[C@H](CC(C)C)NC(=O)[C@H](CO)NC(=O)[C@H](CCC(=O)O)NC(=O)[C@H](CCC(=O)O)NC(=O)[C@@H](NC(=O)[C@H](CCCCN)NC(=O)[C@H](CCCCN)NC(=O)[C@H](CC(N)=O)NC(=O)[C@@H](NC(=O)[C@H](CCC(=O)O)NC(=O)[C@H](CCC(=O)O)NC(=O)[C@@H](NC(=O)[C@H](CCCCN)NC(=O)[C@H](CCCCN)NC(=O)[C@H](CC(=O)O)NC(=O)[C@H](Cc1ccccc1)NC(=O)[C@H](CCC(=O)O)NC(=O)C(CC(=O)O)NC(C)=O)[C@@H](C)CC)C(C)C)[C@@H](C)CC)C(=O)N[C@@H](CCC(=O)O)C(=O)N[C@@H](CCC(=O)O)C(=O)N[C@@H](CO)C(=O)N[C@@H](CC(=O)O)C(=O)N[C@@H](CCCCN)C(=O)N[C@@H](CCCCN)C(=O)N[C@@H](CC(C)C)C(=O)N[C@@H](CCC(=O)O)C(=O)N[C@@H](CCC(=O)O)C(=O)N[C@H](C(=O)N[C@@H](CC(N)=O)C(=O)N[C@@H](CCC(=O)O)C(=O)N[C@@H](C)C(=O)N[C@@H](C)C(=O)N[C@@H](C)C(=O)N[C@@H](CCCCN)C(=O)N[C@@H](CCCCNC(=O)CCC(=O)O[C@H]1CC[C@@]2(C)C(=CC[C@H]3[C@@H]4CC[C@H]([C@H](C)CCCC(C)C)[C@@]4(C)CC[C@@H]32)C1)C(N)=O)C(C)C (stereo partly shown) [Compound 14] (Ac-[ξD]EFDKKIEEVNKKIEESLKKIEESDKKLEEVNEAAAKK(Succinyl(4-O-cholesteryl))-NH2) | 4820 PFU/g lung | significantly reduce the viral titer in lung tissue | 9.6 µM | 7.68 Log10 copy number/gram of lung | significantly reduce the viral titer in lung tissue |
| CC[C@H](C)[C@H](NC(=O)[C@H](CCCCN)NC(=O)[C@H](CCCCN)NC(=O)[C@H](CC(C)C)NC(=O)[C@H](CO)NC(=O)[C@H](CCC(=O)O)NC(=O)[C@H](CCC(=O)O)NC(=O)[C@@H](NC(=O)[C@H](CCCCN)NC(=O)[C@H](CCCCN)NC(=O)[C@H](CC(N)=O)NC(=O)[C@@H](NC(=O)[C@H](CCC(=O)O)NC(=O)[C@H](CCC(=O)O)NC(=O)[C@@H](NC(=O)[C@H](CCCCN)NC(=O)[C@H](CCCCN)NC(=O)[C@H](CC(=O)O)NC(=O)[C@H](Cc1ccccc1)NC(=O)[C@H](CCC(=O)O)NC(=O)C(CC(=O)O)NC(C)=O)[C@@H](C)CC)C(C)C)[C@@H](C)CC)C(=O)N[C@@H](CCC(=O)O)C(=O)N[C@@H](CCC(=O)O)C(=O)N[C@@H](CO)C(=O)N[C@@H](CC(=O)O)C(=O)N[C@@H](CCCCN)C(=O)N[C@@H](CCCCN)C(=O)N[C@@H](CC(C)C)C(=O)N[C@@H](CCC(=O)O)C(=O)N[C@@H](C)C(=O)N[C@@H](C)C(=O)N[C@@H](C)C(=O)N[C@@H](CCCCN)C(=O)N[C@@H](CCCCNC(=O)CCC(=O)O[C@H]1CC[C@@]2(C)C(=CC[C@H]3[C@@H]4CC[C@H]([C@H](C)CCCC(C)C)[C@@]4(C)CC[C@@H]32)C1)C(N)=O (stereo partly shown) [Compound 17] (Ac-[ξD]EFDKKIEEVNKKIEESLKKIEESDKKLEAAAKK(Succinyl(4-O-cholesteryl))-NH2) | 7885 PFU/g lung | significantly reduce the viral titer in lung tissue | 26.4 µM | 8.42 Log10 copy number/gram of lung | significantly reduce the viral titer in lung tissue |
